Reference: US8362236B2, “Macrocyclic compound” (Chugai Seiyaku Kabushiki Kaisha, priority 2007, dated 2013)

Legend:
Human HSP90 alpha = target: T1, Human HSP90 alpha (Homo sapiens, UniProt P07900); assay: Assay for the activity of inhibiting HSP90 enzyme (ATPase, malachite green); assay type: biochemical; conditions: purified human HSP90 alpha, 1 mM ATP added, 37° C. for two hours, OD655; read-out: Enzyme-inhibiting activity (IC50, μM) Human HSP90α
T1 construct: His tag (inferred from purification on a HisPrep FF column); made in house; host or cells: E. coli BL21 codon plus (Stratagene)
Experimental: Introduction of pETHuHSP90a into E. coli (BL21 codon plus; Stratagene) was followed by O/N incubation in the presence of 0.1 mM IPTG, and the collected E. coli cells were disrupted by ultrasonication in a Lysis buffer (50 mM Tris-HCl (pH8.0), 10 mM MgCl2, 0.1% Triton X-100, Protease inhibitor cocktail tablets (Roche Diagnostics)). The cell lysate solution was centrifuged (10,000 rpm×30 minutes), and the supernatant obtained after centrifugation was used as a crude extract. The crude extract was fractionated using HisPrep FF column and HiTrap Q column (Amersham) to prepare a purified enzyme solution.
An enzyme solution for assays was prepared by dilution of the purified enzyme solution using an assay buffer (50 mM Tris HCl pH7.6, 20 mM KCl, 5 mM MgCl2).
10 μL each of various concentrations of the test substances (10% DMSO solution) was added to each well, and for the positive control wells, 10 μL of 10% DMSO was added. 10 μL of 10% DMSO was also added to the negative control well.
10 μL of 1 mM ATP was added to all of the wells, and the reaction was carried out at 37° C. for two hours.

HCT116 cells = assay: Measurement of cell growth inhibition (Cell Counting Kit-8, four days); conditions: Homo sapiens, HCT-116, 96 h, read-out: Cell growth-inhibiting activity (IC50, μM) Colon cancer HCT116, HCT116 colon cancer cell line, four days culture;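 further: cells exposed to a range of test concentrations at 37 °C in 5% CO2 for four days, then growth read as absorbance with Cell Counting Kit-8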
Experimental: Cells were maintained under conditions recommended by the provider of each cell line. Cells suspended in a medium were added to solutions containing various concentrations of the test substance, and the cells were cultured at 37° C. in a 5% CO2 incubator. Four days later, Cell Counting Kit-8 was added, and absorbance measurements were taken following the protocol included in the kit.

IC50 (Human HSP90 alpha) [µM] | IC50 (HCT116 cells) [µM] | Compound
1.1 | > 10 | Cc1cc(C)c2cc1C(=O)NCCC[C@@H](C(=O)NCCO)NC(=O)CCSc1cc-2nc(N)n1 [Compound 46, (S)-4-amino-19,21-dimethyl-10,17-dioxo-7-thia-3,5,11,16-tetraazatricyclo[16.3.1.1^2,6]tricosa-1(21),2,4,6(23),18(22),19-hexaene-12-carboxylic acid (2-hydroxyethyl)amide]
0.8 | > 10 | Cc1cc(C)c2cc1C(=O)NCCC[C@@H](C(=O)NCC(O)CO)NC(=O)CCSc1cc-2nc(N)n1 (stereo partly drawn) [Compound 48, (S)-4-amino-19,21-dimethyl-10,17-dioxo-7-thia-3,5,11,16-tetraazatricyclo[16.3.1.1^2,6]tricosa-1(21),2,4,6(23),18(22),19-hexaene-12-carboxylic acid (2,3-dihydroxypropyl) amide]
2.8 | 0.2 | COC(=O)[C@@H]1CCNC(=O)CCSc2cc(nc(N)n2)-c2cc(c(C)cc2C)C(=O)N1 [Compound 63, (S)-4-amino-18,20-dimethyl-10,16-dioxo-7-thia-3,5,11,15-tetraazatricyclo[15.3.1.1^2,6]docosa-1(20),2(22),3,5,17(21),18-hexaene-14-carboxylic acid methyl ester]
2.8 | 9 | CNC(=O)[C@@H]1CCNC(=O)CCSc2cc(nc(N)n2)-c2cc(c(C)cc2C)C(=O)N1 [Compound 65, (S)-4-amino-18,20-dimethyl-10,16-dioxo-7-thia-3,5,11,15-tetraazatricyclo[15.3.1.1^2,6]docosa-1(20),2(22),3,5,17(21),18-hexaene-14-carboxylic acid methylamide]
2.5 | > 10 | COCCNC(=O)[C@@H]1CCNC(=O)CCSc2cc(nc(N)n2)-c2cc(c(C)cc2C)C(=O)N1 [Compound 66, (S)-4-amino-18,20-dimethyl-10,16-dioxo-7-thia-3,5,11,15-tetraazatricyclo[15.3.1.1^2,6]docosa-1(20),2(22),3,5,17(21),18-hexaene-14-carboxylic acid (2-methoxyethyl) amide]
5.5 | > 5 | Cc1cc(C)c2cc1C(=O)N[C@H](C(=O)N(C)C)CCNC(=O)CCSc1cc-2nc(N)n1 [Compound 67, (S)-4-amino-18,20-dimethyl-10,16-dioxo-7-thia-3,5,11,15-tetraazatricyclo[15.3.1.1^2,6]docosa-1(20),2(22),3,5,17(21),18-hexaene-14-carboxylic acid dimethylamide]
1.7 | 7.1 | Cc1cc(C)c2cc1C(=O)N[C@H](CO)CCNC(=O)CCSc1cc-2nc(N)n1 [Compound 68, (S)-4-amino-14-hydroxymethyl-18,20-dimethyl-7-thia-3,5,11,15-tetraazatricyclo[15.3.1.1^2,6]docosa-1(20),2(22),3,5,17(21),18-hexaene-10,16-dione]
2.9 | 3.2 | COC(=O)[C@H]1CCNC(=O)c2cc(c(C)cc2C)-c2cc(nc(N)n2)SCCC(=O)N1 [Compound 69, (R)-4-amino-18,20-dimethyl-10,16-dioxo-7-thia-3,5,11,15-tetraazatricyclo[15.3.1.1^2,6]docosa-1(20),2,4,6(22),17(21),18-hexaene-12-carboxylic acid methyl ester]
2.7 | > 10 | Cc1cc(C)c2cc1C(=O)NCC[C@@H](C(=O)N1CCOCC1)NC(=O)CCSc1cc-2nc(N)n1 [Compound 70, (S)-4-amino-18,20-dimethyl-12-(morpholine-4-carbonyl)-7-thia-3,5,11,15-tetraazatricyclo[15.3.1.1^2,6]docosa-1(20),2,4,6(22),17(21),18-hexaene-10,16-dione]
2.9 | 9.1 | Cc1cc(C)c2cc1C(=O)NCC[C@@H](CN1CCOCC1)NC(=O)CCSc1cc-2nc(N)n1 [Compound 71, (S)-4-amino-18,20-dimethyl-12-morpholin-4-ylmethyl-7-thia-3,5,11,15-tetraazatricyclo[15.3.1.1^2,6]docosa-1(20),2(22),3,5,17(21),18-hexaene-10,16-dione]
